Data: US20240308992A1 (Biopolar Youtang(Guangdong) Pharmaceutical Co., Ltd., priority 2021, published 2024)

Biological target: T1, Drak2 (Homo sapiens, UniProt O94768)
T1 sequence (O94768 1-372): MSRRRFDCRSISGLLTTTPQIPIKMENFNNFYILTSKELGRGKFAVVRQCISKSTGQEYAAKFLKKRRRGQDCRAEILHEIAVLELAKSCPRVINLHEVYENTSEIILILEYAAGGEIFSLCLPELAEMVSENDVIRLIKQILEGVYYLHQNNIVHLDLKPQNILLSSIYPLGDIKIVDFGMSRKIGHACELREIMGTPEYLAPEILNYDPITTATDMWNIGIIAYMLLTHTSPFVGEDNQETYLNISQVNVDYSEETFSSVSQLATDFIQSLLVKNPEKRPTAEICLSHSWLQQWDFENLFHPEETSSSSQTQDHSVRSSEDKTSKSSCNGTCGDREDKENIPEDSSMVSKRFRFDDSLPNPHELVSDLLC
Test: Drak2 activity test, ADP-Glo kinase assay (Promega)
Assay type: biochemical
Details: inhibition of Drak2 kinase activity, 2 h room temperature, activity range classes, read-out: IC50_Drak2

Question: `COc1cc(-c2cncc(-c3cc(NC(=O)CC4CCCC4)cs3)n2)ccc1CN1CCOCC1` [Example B36, 2-cyclopentyl-N-(5-(6-(3-methoxy-4-(morpholinomethyl)phenyl)pyrazin-2-yl)thiophen-3-yl)acetamide] was tested. Which IC50 did it give?
Answer: 0.101 to 1 µM

Question: For `CCCCC(=O)Nc1csc(-c2cncc(-c3ccc(C(=O)N4CCN(C)CC4)c(OC)c3)n2)c1` [Example B37, N-(5-(6-(3-methoxy-4-(4-methylpiperazine-1-carbonyl)phenyl)pyrazin-2-yl)thiophen-3-yl)pentanamide], which IC50 is on record?
Answer: 0.011 to 0.1 µM

Question: Which IC50 does the source give for `COc1cc(-c2cncc(-c3cc(NC(=O)CC4CC4)cs3)n2)ccc1C(=O)N1CCN(C)CC1` [Example B38, 2-cyclopropyl-N-(5-(6-(3-methoxy-4-(4-methylpiperazine-1-carbonyl)phenyl)pyrazin-2-yl)thiophen-3-yl)acetamide] here?
Answer: 0.011 to 0.1 µM

Question: Which IC50 does the source give for `COc1cc(-c2cncc(-c3cc(NC(=O)CC4CCC4)cs3)n2)ccc1C(=O)N1CCN(C)CC1` [Example B39, 2-cyclobutyl-N-(5-(6-(3-methoxy-4-(4-methylpiperazine-1-carbonyl)phenyl)pyrazin-2-yl)thiophen-3-yl)acetamide] here?
Answer: 0.011 to 0.1 µM

Question: With `COc1cc(-c2cncc(-c3cc(NC(=O)CC4CCCC4)cs3)n2)ccc1C(=O)N1CCN(C)CC1` [Example B40, 2-cyclopentyl-N-(5-(6-(3-methoxy-4-(4-methylpiperazine-1-carbonyl)phenyl)pyrazin-2-yl)thiophen-3-yl)acetamide] as the molecule, how does the IC50 read?
Answer: 0.011 to 0.1 µM

Question: How did the IC50 turn out when `CCCCC(=O)Nc1csc(-c2cncc(-c3ccc(C(=O)Nc4cn(C)nc4OC)c(OC)c3)n2)c1` [Example B41, 2-methoxy-N-(3-methoxy-1-methyl-1H-pyrazol-4-yl)-4-(6-(4-pentanamidothiophen-2-yl)pyrazin-2-yl)benzamide] was run?
Answer: 0.101 to 1 µM

Question: With `COc1cc(-c2cncc(-c3cc(NC(=O)CC4CC4)cs3)n2)ccc1C(=O)Nc1cn(C)nc1OC` [Example B42, 4-(6-(4-(2-cyclopropylacetamido)thiophen-2-yl)pyrazin-2-yl)-2-methoxy-N-(3-methoxy-1-methyl-1H-pyrazol-4-yl)benzamide] as the molecule, how does the IC50 read?
Answer: 0.101 to 1 µM

Question: For `COc1cc(-c2cncc(-c3cc(NC(=O)CC4CCC4)cs3)n2)ccc1C(=O)Nc1cnn(C)c1OC` [Example B43, 4-(6-(4-(2-cyclobutylacetamido)thiophen-2-yl)pyrazin-2-yl)-2-methoxy-N-(5-methoxy-1-methyl-1H-pyrazol-4-yl)benzamide], which IC50 is on record?
Answer: 0.101 to 1 µM

Question: `COc1cc(-c2cncc(-c3cc(NC(=O)CC4CCCC4)cs3)n2)ccc1C(=O)Nc1cnn(C)c1OC` [Example B44, 4-(6-(4-(2-cyclopentylacetamido)thiophen-2-yl)pyrazin-2-yl)-2-methoxy-N-(5-methoxy-1-methyl-1H-pyrazol-4-yl)benzamide] was tested. Which IC50 did it give?
Answer: 0.101 to 1 µM

Question: With `COc1cc(-c2cncc(-c3cc(NC(=O)CC45CC(C4)C5)cs3)n2)ccc1C(=O)N1CCOCC1` [Example B45, 2-(bicyclo[1.1.1]pentan-1-yl)-N-(5-(6-(3-methoxy-4-(morpholine-4-carbonyl)phenyl)pyrazin-2-yl)thiophen-3-yl)acetamide] as the molecule, how does the IC50 read?
Answer: 0.011 to 0.1 µM

Question: With `COc1cc(-c2cncc(-c3cc(NC(=O)CC4CC4)cs3)n2)ccc1C(=O)Nc1nnco1` [Example B46, 4-(6-(4-(2-cyclopropylacetamido)thiophen-2-yl)pyrazin-2-yl)-2-methoxy-N-(1,3,4-oxadiazol-2-yl)benzamide] as the molecule, how does the IC50 read?
Answer: 0.011 to 0.1 µM

Question: For `CCCCC(=O)Nc1csc(-c2cncc(-c3ccc(C(=O)N4CCN(C5CCN(C)CC5)CC4)c(OC)c3)n2)c1` [Example B47, N-(5-(6-(3-methoxy-4-(4-(1-methylpiperidin-4-yl)piperazine-1-carbonyl)phenyl)pyrazin-2-yl)thiophen-3-yl)pentanamide], which IC50 is on record?
Answer: 0.011 to 0.1 µM

Question: How did the IC50 turn out when `COc1cc(-c2cncc(-c3cc(NC(=O)CC4CC4)cs3)n2)ccc1C(=O)N1CCC(OC)CC1` [Example B48, 2-cyclopropyl-N-(5-(6-(3-methoxy-4-(4-methoxypiperidine-1-carbonyl)phenyl)pyrazin-2-yl)thiophen-3-yl)acetamide] was run?
Answer: 0.011 to 0.1 µM

Question: For `COc1cc(-c2cncc(-c3cc(NC(=O)CC4CCC4)cs3)n2)ccc1C(=O)N1CCC(OC)CC1` [Example B49, 2-cyclobutyl-N-(5-(6-(3-methoxy-4-(4-methoxypiperidine-1-carbonyl)phenyl)pyrazin-2-yl)thiophen-3-yl)acetamide], which IC50 is on record?
Answer: 0.011 to 0.1 µM

Question: `COc1cc(-c2cncc(-c3cc(NC(=O)CC4CC4)cs3)n2)ccc1C(=O)N1CCN(C2CCN(C)CC2)CC1` [Example B50, 2-cyclopropyl-N-(5-(6-(3-methoxy-4-(4-(1-methylpiperidin-4-yl)piperazine-1-carbonyl)phenyl)pyrazin-2-yl)thiophen-3-yl)acetamide] was tested. Which IC50 did it give?
Answer: 0.011 to 0.1 µM

Question: With `COc1cc(-c2cncc(-c3cc(NC(=O)CC4CCC4)cs3)n2)ccc1C(=O)N1CCN(C2CCN(C)CC2)CC1` [Example B51, 2-cyclobutyl-N-(5-(6-(3-methoxy-4-(4-(1-methylpiperidin-4-yl)piperazine-1-carbonyl)phenyl)pyrazin-2-yl)thiophen-3-yl)acetamide] as the molecule, how does the IC50 read?
Answer: 0.011 to 0.1 µM

Question: `COc1cc(-c2cncc(-c3cc(NC(=O)CC4CCCC4)cs3)n2)ccc1C(=O)N1CCN(C2CCN(C)CC2)CC1` [Example B52, 2-cyclopentyl-N-(5-(6-(3-methoxy-4-(4-(1-methylpiperidin-4-yl)piperazine-1-carbonyl)phenyl)pyrazin-2-yl)thiophen-3-yl)acetamide] was tested. Which IC50 did it give?
Answer: 0.011 to 0.1 µM

Question: With `CCCCC(=O)Nc1csc(-c2cncc(-c3ccc(C(=O)N4CCC(OC)CC4)c(OC)c3)n2)c1` [Example B53, N-(5-(6-(3-methoxy-4-(4-methoxypiperidine-1-carbonyl)phenyl)pyrazin-2-yl)thiophen-3-yl)pentanamide] as the molecule, how does the IC50 read?
Answer: 0.011 to 0.1 µM

Question: With `COc1cc(-c2cncc(-c3cc(NC(=O)CC4CCCC4)cs3)n2)ccc1C(=O)N1CCC(OC)CC1` [Example B54, 2-cyclopentyl-N-(5-(6-(3-methoxy-4-(4-methoxypiperidine-1-carbonyl)phenyl)pyrazin-2-yl)thiophen-3-yl)acetamide] as the molecule, how does the IC50 read?
Answer: 0.011 to 0.1 µM

Question: With `CCCCC(=O)Nc1csc(-c2cncc(-c3ccc(C(=O)N(C)CCN(C)C)c(OC)c3)n2)c1` [Example B55, N-(2-(dimethylamino)ethyl)-2-methoxy-N-methyl-4-(6-(4-pentanamidothiophen-2-yl)pyrazin-2-yl)benzamide] as the molecule, how does the IC50 read?
Answer: 0.011 to 0.1 µM

Question: Which IC50 does the source give for `COc1cc(-c2cncc(-c3cc(NC(=O)CC4CC4)cs3)n2)ccc1C(=O)N(C)CCN(C)C` [Example B56, 4-(6-(4-(2-cyclopropylacetamido)thiophen-2-yl)pyrazin-2-yl)-N-(2-(dimethylamino)ethyl)-2-methoxy-N-methylbenzamide] here?
Answer: < 0.01 µM

Question: For `COc1cc(-c2cncc(-c3cc(NC(=O)CC4CCC4)cs3)n2)ccc1C(=O)N(C)CCN(C)C` [Example B57, 4-(6-(4-(2-cyclobutylacetamido)thiophen-2-yl)pyrazin-2-yl)-N-(2-(dimethylamino)ethyl)-2-methoxy-N-methylbenzamide], which IC50 is on record?
Answer: 0.011 to 0.1 µM

Question: How did the IC50 turn out when `COc1cc(-c2cncc(-c3cc(NC(=O)CC4CCCC4)cs3)n2)ccc1C(=O)N(C)CCN(C)C` [Example B58, 4-(6-(4-(2-cyclopentylacetamido)thiophen-2-yl)pyrazin-2-yl)-N-(2-(dimethylamino)ethyl)-2-methoxy-N-methylbenzamide] was run?
Answer: 0.011 to 0.1 µM

Question: `CCCCC(=O)Nc1csc(-c2cncc(-c3ccc(C(=O)N(C)C4CCN(C)CC4)c(OC)c3)n2)c1` [Example B59, 2-methoxy-N-methyl-N-(1-methylpiperidin-4-yl)-4-(6-(4-pentanamidothiophen-2-yl)pyrazin-2-yl)benzamide] was tested. Which IC50 did it give?
Answer: < 0.01 µM

Question: `COc1cc(-c2cncc(-c3cc(NC(=O)CC4CC4)cs3)n2)ccc1C(=O)N(C)C1CCN(C)CC1` [Example B60, 4-(6-(4-(2-cyclopropylacetamido)thiophen-2-yl)pyrazin-2-yl)-2-methoxy-N-methyl-N-(1-methylpiperidin-4-yl)benzamide] was tested. Which IC50 did it give?
Answer: 0.011 to 0.1 µM

Question: Which IC50 does the source give for `COc1cc(-c2cncc(-c3cc(NC(=O)CC4CCCC4)cs3)n2)ccc1C(=O)N(C)C1CCN(C)CC1` [Example B61, 4-(6-(4-(2-cyclopentylacetamido)thiophen-2-yl)pyrazin-2-yl)-2-methoxy-N-methyl-N-(1-methylpiperidin-4-yl)benzamide] here?
Answer: 0.011 to 0.1 µM

Question: For `COc1cc(-c2cncc(-c3cc(NC(=O)CC4CCC4)cs3)n2)ccc1C(=O)Nc1nnco1` [Example B62, 4-(6-(4-(2-cyclobutylacetamido)thiophen-2-yl)pyrazin-2-yl)-2-methoxy-N-(1,3,4-oxadiazol-2-yl)benzamide], which IC50 is on record?
Answer: 0.011 to 0.1 µM

Question: For `COc1cc(-c2cncc(-c3cc(NC(=O)CC4CCC4)cs3)n2)ccc1C(=O)N(C)C1CCN(C)CC1` [Example B63, 4-(6-(4-(2-cyclobutylacetamido)thiophen-2-yl)pyrazin-2-yl)-2-methoxy-N-methyl-N-(1-methylpiperidin-4-yl)benzamide], which IC50 is on record?
Answer: < 0.01 µM

Question: How did the IC50 turn out when `COc1cc(-c2cncc(-c3cc(NC(=O)CC4CCCC4)cs3)n2)ccc1C(=O)Nc1nnco1` [Example B64, 4-(6-(4-(2-cyclopentylacetamido)thiophen-2-yl)pyrazin-2-yl)-2-methoxy-N-(1,3,4-oxadiazol-2-yl)benzamide] was run?
Answer: 0.011 to 0.1 µM

Question: Which IC50 does the source give for `CCCCC(=O)Nc1csc(-c2nccc(-c3ccc(C(=O)N(C)C4CCN(C)CC4)c(OC)c3)n2)c1` [Example B66, 2-methoxy-N-methyl-N-(1-methylpiperidin-4-yl)-4-(2-(4-pentanamidothiophen-2-yl)pyrimidin-4-yl)benzamide] here?
Answer: 1 to 10 µM

Question: How did the IC50 turn out when `CCCCC(=O)Nc1csc(-c2cncc(-c3ccc(C(=O)N(C)C4CCN(C(C)C)CC4)c(OC)c3)n2)c1` [Example B68, N-(1-isopropylpiperidin-4-yl)-2-methoxy-N-methyl-4-(6-(4-pentanamidothiophen-2-yl)pyrazin-2-yl)benzamide] was run?
Answer: < 0.01 µM
